Measured values reported in the supplement of paper PMC11208160.

Assay: recombinant UMI read abundance after kanamycin selection (control-corrected) (log10(CPM+1)); higher = more efficient recombination; extreme values may be limits of the assay; sequences stand for … in AGTGCAGAGAAAATCGGCCAGTTTTCTCTGCCTGCAGTCCGCATGCCGTGGGACCCCTTGGGTTCTAACCTGTTGCCTAGATTTATGCAGCGGACTGCCTTTCTCCCAAAGTGATAAACCGG…AGGTTGGTTTCACT; site = the 11-nt donor
Procedure, shortened: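 Values, expressed as log10(CPM+1), derive from recombinant UMI counts converted to CPM, averaged across replicates and scaled by control-derived factors. Plating was with IPTG (0.07 mM) plus kanamycin or unselected, two replicates each. The screen pooled donor and donor-binding-loop pairs for the IS621 bridge recombinase in Escherichia coli.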
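Note: IS621 bridge recombinase in Escherichia coli cells against a fixed T5 target plasmid.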

Sequence | recombinant UMI read abundance (log10)
CTGCGTGCATGGACCGGTTTTCCCGGTAATCCGTATTTGGT (site CTGCGTGCTAC) | 1.37
CTGCTACCATGGACCGGTTTTCCCGGTAATCCGTATTTGCG (site CTGCTACCTAG) | 0
CTGCTACCATGGACCGGTTTTCCCGGTAATCCGTATTTGCG (site CTGCTACCTCG) | 0.309
CTGCTACCATGGACCGGTTTTCCCGGTAATCCGTATTTGCG (site CTGCTACCTGG) | 0
CTGCTACCATGGACCGGTTTTCCCGGTAATCCGTATTTGCG (site CTGCTACCTTG) | 0
CTGCTACCATGGACCGGTTTTCCCGGTAATCCGTATTTGTT (site CTGCTACCTAA) | 0.0134
CTGCTACCATGGACCGGTTTTCCCGGTAATCCGTATTTGTT (site CTGCTACCTAC) | 0.0167
CTGCTACCATGGACCGGTTTTCCCGGTAATCCGTATTTGTT (site CTGCTACCTAG) | 0
CTGCTACCATGGACCGGTTTTCCCGGTAATCCGTATTTGTT (site CTGCTACCTAT) | 0.011
CTGCTAGCATGGACCGGTTTTCCCGGTAATCCGTATTTGCT (site CTGCTAACTAG) | 0
CTGCTAGCATGGACCGGTTTTCCCGGTAATCCGTATTTGCT (site CTGCTACCTAG) | 0
CTGCTAGCATGGACCGGTTTTCCCGGTAATCCGTATTTGCT (site CTGCTAGCTAG) | 0
CTGCTAGCATGGACCGGTTTTCCCGGTAATCCGTATTTGCT (site CTGCTATCTAG) | 0
CTGCTATCATGGACCGGTTTTCCCGGTAATCCGTATTTGCT (site CTGCTAACTAG) | 0.708
CTGCTATCATGGACCGGTTTTCCCGGTAATCCGTATTTGCT (site CTGCTACCTAG) | 0
CTGCTATCATGGACCGGTTTTCCCGGTAATCCGTATTTGCT (site CTGCTAGCTAG) | 0.0179
CTGCTATCATGGACCGGTTTTCCCGGTAATCCGTATTTGCT (site CTGCTATCTAG) | 2.33
CTGCTGCCATGGACCGGTTTTCCCGGTAATCCGTATTTGCT (site CTGCTACCTAG) | 0.00624
CTGCTGCCATGGACCGGTTTTCCCGGTAATCCGTATTTGCT (site CTGCTCCCTAG) | 0.506

Sequence | recombinant UMI read abundance (log10)
CTGCTGCCATGGACCGGTTTTCCCGGTAATCCGTATTTGCT (site CTGCTGCCTAG) | 1.22
CTGCTGCCATGGACCGGTTTTCCCGGTAATCCGTATTTGCT (site CTGCTTCCTAG) | 0
CTGCTTCCATGGACCGGTTTTCCCGGTAATCCGTATTTGCT (site CTGCTACCTAG) | 0
CTGCTTCCATGGACCGGTTTTCCCGGTAATCCGTATTTGCT (site CTGCTCCCTAG) | 0.807
CTGCTTCCATGGACCGGTTTTCCCGGTAATCCGTATTTGCT (site CTGCTGCCTAG) | 0.00367
CTGCTTCCATGGACCGGTTTTCCCGGTAATCCGTATTTGCT (site CTGCTTCCTAG) | 1.73
CTGGAACCATGGACCGGTTTTCCCGGTAATCCGTATTTGAT (site CAGGAACCTAT) | 0
CTGGAACCATGGACCGGTTTTCCCGGTAATCCGTATTTGAT (site CCGGAACCTAT) | 0
CTGGAACCATGGACCGGTTTTCCCGGTAATCCGTATTTGAT (site CGGGAACCTAT) | 0
CTGGAACCATGGACCGGTTTTCCCGGTAATCCGTATTTGAT (site CTGGAACCTAT) | 0
CTGGAACCATGGACCGGTTTTCCCGGTAATCCGTATTTGCA (site CTGGAAACTTG) | 0
CTGGAACCATGGACCGGTTTTCCCGGTAATCCGTATTTGCA (site CTGGAACCTTG) | 0
CTGGAACCATGGACCGGTTTTCCCGGTAATCCGTATTTGCA (site CTGGAAGCTTG) | 0.00806
CTGGAACCATGGACCGGTTTTCCCGGTAATCCGTATTTGCA (site CTGGAATCTTG) | 2.36
CTGGACACATGGACCGGTTTTCCCGGTAATCCGTATTTGCA (site CTGGAAACTTG) | 0.462
CTGGACACATGGACCGGTTTTCCCGGTAATCCGTATTTGCA (site CTGGACACTTG) | 2.59
CTGGACACATGGACCGGTTTTCCCGGTAATCCGTATTTGCA (site CTGGAGACTTG) | 0.00455
CTGGACACATGGACCGGTTTTCCCGGTAATCCGTATTTGCA (site CTGGATACTTG) | 1.66
CTGGGCCCATGGACCGGTTTTCCCGGTAATCCGTATTTGCC (site CTGGGCCCTGG) | 0

Sequence | recombinant UMI read abundance (log10)
CTGGTAACATGGACCGGTTTTCCCGGTAATCCGTATTTGCA (site CTGGAAACTTG) | 1.03
CTGGTAACATGGACCGGTTTTCCCGGTAATCCGTATTTGCA (site CTGGCAACTTG) | 0.197
CTGGTAACATGGACCGGTTTTCCCGGTAATCCGTATTTGCA (site CTGGGAACTTG) | 0
CTGGTAACATGGACCGGTTTTCCCGGTAATCCGTATTTGCA (site CTGGTAACTTG) | 2.06
CTGGTATCATGGACCGGTTTTCCCGGTAATCCGTATTTGAC (site CTAGTATCTGT) | 3.16
CTGGTATCATGGACCGGTTTTCCCGGTAATCCGTATTTGAC (site CTCGTATCTGT) | 0
CTGGTATCATGGACCGGTTTTCCCGGTAATCCGTATTTGAC (site CTGGTATCTGT) | 3.22
CTGGTATCATGGACCGGTTTTCCCGGTAATCCGTATTTGAC (site CTTGTATCTGT) | 0.816
CTGGTCGCATGGACCGGTTTTCCCGGTAATCCGTATTTGCA (site CTGGTCGCTTG) | 2.01
CTGTACCCATGGACCGGTTTTCCCGGTAATCCGTATTTGAG (site CTGTACCCTCT) | 0.00463
CTGTCAGCATGGACCGGTTTTCCCGGTAATCCGTATTTGGT (site CTGTCAGCTAC) | 0.563
CTGTCCTCATGGACCGGTTTTCCCGGTAATCCGTATTTGTT (site CTGTCCTCTAA) | 1.92
CTGTCGACATGGACCGGTTTTCCCGGTAATCCGTATTTGGT (site CTGTCGACTAC) | 0.884
CTGTCGGCATGGACCGGTTTTCCCGGTAATCCGTATTTGCC (site CTGTCGGCTGG) | 0
CTGTCTCCATGGACCGGTTTTCCCGGTAATCCGTATTTGAG (site CTGTCTCCTCT) | 0.0686
CTGTCTTCATGGACCGGTTTTCCCGGTAATCCGTATTTGGG (site CTGTCTTCTCC) | 0.0096
CTGTGAACATGGACCGGTTTTCCCGGTAATCCGTATTTGTT (site CTGTGAACTAA) | 1.15
CTTACTACATGGACCGGTTTTCCCGGTAATCCGTATTTGGA (site CTTACTACTTC) | 0.205
CTTAGGCCATGGACCGGTTTTCCCGGTAATCCGTATTTGAA (site CTTAGGCCTTT) | 0.104
